Results taken from patent publication US20120202794A1 (priority 2011, published 2012).

Key:
HCV Replicon 1b = assay: HCV inhibition assay, HCV replicon 1b (Clone A or ET-lunet cells; RT-PCR or luciferase reporter); format: cell-based; details: Hepatitis C virus, 96 h, HCV replicon 1b; 4 days incubation; read-out: Replicon 1b potency EC90
Method: HCV inhibition assay. Clone A or ET-lunet cells were seeded at a density of 1500 or 3000 cells per well in a 96-well plate, respectively. Test compounds serially diluted in culture medium without G418 were added to cells so that the final DMSO concentration was 0.5%. Plates were incubated at 37° C. in a 5% CO2 atmosphere for 4 days. Inhibition of HCV RNA replication was determined by real time PCR (RT-PCR) or by measuring the levels of luminescence expressed via the luciferase reporter gene encoded within the ET replicon. Briefly, for the RT-PCR assay, total RNA was extracted using the RNeasy-96 kit as recommended by the manufacturer (Qiagen, Valencia, Calif.), reversed transcribed into cDNA, and amplified using primer and probe mix for HCV 5′-NTR RNA and human ribosomal RNA (rRNA) in a one-step RT-PCR reaction as described previously (50). A relative quantification method was used to determine the extent of inhibition. The threshold cycle (Ct) of rRNA was subtracted from the Ct of HCV RNA (ΔCt). The average ΔCt of the DMSO cell controls was then subtracted from the ΔCt of the compound treated sample (ΔΔCt). Percent inhibition was determined by using the following equation: %=(1−(2^−ΔΔC^t))×100. For the luciferase-based replicon assay, luminescence was measured by using a Victor3 plate reader (Perkin-Elmer, Boston, Mass.) following the addition of Bright-Glo reagent as recommended by the manufacturer (Promega, Madison, Wis.). Percent inhibition of HCV replication was determined by comparing the change in luminescence of the drug treated wells versus the DMSO cell controls. EC50 and EC90 values, the concentrations at which 50% and 90% inhibition were achieved, were determined using the GraphPad Prism software (San Diego, Calif.).

[1] = Cell cytotoxicity assay (MTS), CC90 as reported in Table 1, cell line not stated; format: cell-based; details: human; cell line not given
Method: Cell cytotoxicity assays. Each compound (serially diluted from 100 μM) was added to Huh7 (2×10^3 cells/well), HepG2 (2×10^3 cells/well), BxPC3 (2×10^3 cells/well), or CEM (5×10^3 cells/well) cells and allowed to incubate for 8 days at 37° C. A medium only control was used to determine the minimum absorbance value […]. At the end of the growth period, MTS dye from the CellTiter 96 Aqueous One Solution Cell Proliferation Assay kit (Promega) was added to each well and the plate was incubated for an additional 2 hours. The absorbance at 490 nm was read with a Victor3 plate reader (Perkin Elmer) using the medium only control wells as blanks. The 90% inhibition value (CC90) was determined by comparing the absorbance in wells containing cells and test compound to untreated cell control wells.

Structure (SMILES)	EC90 (HCV Replicon 1b) [µM]	CC90 at 8 days [1] [µM]
CC(C)C[C@H]1CN(C(=O)c2cn(-c3ccccc3)cn2)[C@@H](CC(C)C)C(=O)N1 [Compound 102]	> 10	> 10
CC(C)C[C@H]1CN(C(=O)c2cn(-c3ccc(F)cc3)cn2)[C@@H](CC(C)C)C(=O)N1 [Compound 103]	8.64	> 10
CC(C)C[C@H]1CN(C(=O)c2cnn(-c3ccc(F)cc3)c2)[C@@H](CC(C)C)C(=O)N1 [Compound 104]	4.74	> 10
CC(C)C[C@H]1CN(C(=O)c2cc(-c3ccc(Cl)cc3)ns2)[C@@H](CC(C)C)C(=O)N1 [Compound 105]	1.49	> 10
CC(C)C[C@H]1CN(C(=O)c2cc(C3CC3)on2)[C@@H](CC(C)C)C(=O)N1 [Compound 106]	8.77	> 10
CCc1cc(C(=O)N2C[C@H](CC(C)C)NC(=O)[C@@H]2CC(C)C)no1 [Compound 107]	8.41	> 10
CC(C)C[C@H]1CN(C(=O)c2cc(-c3ccccc3)on2)[C@@H](CC(C)C)C(=O)N1 [Compound 108]	0.52	> 10
CC(C)C[C@H]1CN(C(=O)c2cc(-c3cccs3)on2)[C@@H](CC(C)C)C(=O)N1 [Compound 109]	0.54	> 10
CC(C)C[C@H]1C(=O)N[C@@H](c2ccccc2)CN1C(=O)c1cc(-c2cccs2)on1 [Compound 110]	0.59	> 10
CC(C)C[C@H]1C(=O)N[C@@H](C(C)C)CN1C(=O)c1cc(-c2cccs2)on1 [Compound 111]	0.8	> 10
CC(C)C[C@H]1CN(C(=O)c2cc(-c3ccc(Cl)s3)on2)[C@@H](CC(C)C)C(=O)N1 [Compound 112]	0.95	> 10
CC(C)C[C@H]1CN(C(=O)C#Cc2ccc(F)cc2)[C@@H](CC(C)C)C(=O)N1 [Compound 113]	3.4	> 10
CC(C)C[C@H]1CN(C(=O)C#Cc2ccccc2)[C@@H](CC(C)C)C(=O)N1 [Compound 114]	4.08	> 10
Cc1ccc(C#CC(=O)N2C[C@H](CC(C)C)NC(=O)[C@@H]2CC(C)C)cc1 [Compound 115]	5.01	> 10
CC(C)C[C@H]1CN(C(=O)C#Cc2ccc(F)c(F)c2)[C@@H](CC(C)C)C(=O)N1 [Compound 116]	9.65	> 10
CC(C)C[C@H]1CN(C(=O)C#Cc2ccc(F)cc2F)[C@@H](CC(C)C)C(=O)N1 [Compound 117]	2.66	> 10
COc1ccc(C#CC(=O)N2C[C@H](CC(C)C)NC(=O)[C@@H]2CC(C)C)cc1 [Compound 118]	2.96	> 10
CC(C)C[C@H]1CN(C(=O)C#Cc2ccc(Cl)cc2F)[C@@H](CC(C)C)C(=O)N1 [Compound 119]	6.2	> 10
CC(C)C[C@H]1CN(C(=O)C#Cc2ccc(Cl)cc2)[C@@H](CC(C)C)C(=O)N1 [Compound 120]	9.16	> 10
CC(C)C[C@H]1CN(C(=O)C#Cc2cc(F)c(F)c(F)c2)[C@@H](CC(C)C)C(=O)N1 [Compound 121]	3.23	> 10
CC(C)C[C@H]1CN(C(=O)C#Cc2ccc(C(F)(F)F)cc2)[C@@H](CC(C)C)C(=O)N1 [Compound 122]	7.54	> 10
CC(C)C[C@H]1CN(C(=O)c2cc(-c3ccc(F)c(F)c3)on2)[C@@H](CC(C)C)C(=O)N1 [Compound 123]	0.97	> 10

Structure (SMILES)	EC90 (HCV Replicon 1b) [µM]	CC90 at 8 days [1] [µM]
CC(C)C[C@H]1CN(C(=O)c2cc(-c3ccc(F)cc3)on2)[C@@H](CC(C)C)C(=O)N1 [Compound 124]	0.11	> 10
CC(C)C[C@H]1CN(C(=O)c2cc(-c3ccc(Cl)cc3)on2)[C@@H](CC(C)C)C(=O)N1 [Compound 125]	0.26	> 10
Cc1ccc(-c2cc(C(=O)N3C[C@H](CC(C)C)NC(=O)[C@@H]3CC(C)C)no2)cc1 [Compound 126]	1.66	> 10
COc1ccc(-c2cc(C(=O)N3C[C@H](CC(C)C)NC(=O)[C@@H]3CC(C)C)no2)cc1 [Compound 127]	1.14	> 10
CC(C)C[C@H]1CN(C(=O)c2cc(-c3cccc(F)c3)on2)[C@@H](CC(C)C)C(=O)N1 [Compound 128]	0.84	> 10
CC(C)C[C@H]1CN(C(=O)c2cc(-c3cccc(Cl)c3)on2)[C@@H](CC(C)C)C(=O)N1 [Compound 129]	2.93	> 10
COc1cccc(-c2cc(C(=O)N3C[C@H](CC(C)C)NC(=O)[C@@H]3CC(C)C)no2)c1 [Compound 130]	5.75	> 10
COc1ccccc1-c1cc(C(=O)N2C[C@H](CC(C)C)NC(=O)[C@@H]2CC(C)C)no1 [Compound 131]	3.49	> 10
CC(C)C[C@H]1CN(C(=O)c2cc(-c3ccc(C(C)(C)C)cc3)on2)[C@@H](CC(C)C)C(=O)N1 [Compound 132]	4.33	> 10
CC(C)C[C@H]1CN(C(=O)c2cc(-c3ccc(F)cc3F)on2)[C@@H](CC(C)C)C(=O)N1 [Compound 133]	0.6	> 10
CC(C)C[C@H]1CN(C(=O)c2cc(-c3ccc(Cl)c(F)c3)on2)[C@@H](CC(C)C)C(=O)N1 [Compound 134]	0.89	> 10
CC(C)C[C@H]1CN(C(=O)c2cc(-c3ccc(Br)cc3)on2)[C@@H](CC(C)C)C(=O)N1 [Compound 135]	0.47	> 10
CC(C)C[C@H]1CN(C(=O)c2cc(-c3ccc(C#N)cc3)on2)[C@@H](CC(C)C)C(=O)N1 [Compound 136]	1.53	> 10
CC(C)C[C@H]1C(=O)N[C@@H](C2CCCC2)CN1C(=O)c1cc(-c2ccc(C#N)cc2)on1 [Compound 137]	0.8	> 10
CC(C)C[C@H]1CN(C(=O)c2cc(-c3cccc(OC(F)(F)F)c3)on2)[C@@H](CC(C)C)C(=O)N1 [Compound 138]	7.04	> 10
CC(C)C[C@H]1CN(C(=O)c2cc(-c3ccc(C(=O)N(C)C)cc3)on2)[C@@H](CC(C)C)C(=O)N1 [Compound 139]	> 10	> 10
CC(C)C[C@H]1CN(C(=O)c2cc(-c3ccc(N(C)C)cc3)on2)[C@@H](CC(C)C)C(=O)N1 [Compound 140]	> 10	> 10
CC(C)C[C@H]1CN(C(=O)c2cc(-c3ccc(F)c(Cl)c3)on2)[C@@H](CC(C)C)C(=O)N1 [Compound 141]	1.78	> 10
CC(C)C[C@H]1CN(C(=O)c2cc(-c3ccccc3F)on2)[C@@H](CC(C)C)C(=O)N1 [Compound 142]	2.01	> 10
CC(C)C[C@H]1CN(C(=O)c2cc(-c3ccc(Cl)cc3F)on2)[C@@H](CC(C)C)C(=O)N1 [Compound 143]	1.21	> 10
CC(C)C[C@H]1CN(C(=O)c2cc(-c3ccc(F)cc3)no2)[C@@H](CC(C)C)C(=O)N1 [Compound 144]	0.33	> 10
